Assay results reported in article PMC9555560, “Fast relaxing red and near-IR switchable azobenzenes with chalcogen and halogen substituents: periodic trends, tuneable thermal half-lives and chalcogen bonding” (Chemical Science, 2022).

Key:
[1] = E → Z photo-isomerisation with LEDs / photo-stationary state (PSS) determination; type: physicochemical; settings: under irradiation
Protocol: The E → Z photo-isomerisation and half-life for the Z → E thermal isomerisation was evaluated for all derivatives (Fig. 7 and Table 1, see ESI ^† for original data). To our surprise, the half-lives for (Z)-X2,m-Y2 derivatives were in the order of hours to days for X = F and Cl: the effect of the meta group was not as drastic as anticipated. We typically observed a ∼4 fold decrease in half-life by substituting H with OMe, and a further 3-fold drop from OMe to NMe2 for X = F, Cl and SEt. The nature of the ortho-substituent appeared to be the main influence on τ1/2 (F > Cl ≫ SEt). However, these predictable trends observed for the meta-substitution allow for precise tuning of thermal half-lives. The photo-stationary states (PSSs) of these derivatives ranged from 48–77% Z isomer (Table 1).
Remarkably, it was possible to photo-switch the tetra-iodo derivative I4-ester using near-IR light (730 nm) (Fig. 8C). […] Photo-isomerisation was not detected for the ortho-telluro derivatives. This is consistent with findings by Haberhauer and co-workers, who propose that the strong chalcogen bonds in the E isomer of a PhTe-substituted azobenzene lead to dramatic energy differences between the E and Z isomers, which suppresses photoswitching.[43] The photo-stationary states of the halogen X4 derivatives range from 50–84% (Table 1) and could also be determined for the slower relaxing chalcogen derivatives (PSS 46–95%, see Fig. S308–S323 ^† for original data).
All UV-vis spectra were determined in DMSO solution. Extinction coefficients were determined by recording a UV-vis spectra for the E isomer at 10, 20, 30, 40 µM in DMSO respectively. The absorbance at the maximum of the π - π* transition of the E‐isomers was plotted against concentration (Beer-Lambert plot) to determine the molar extinction coefficient ε. For each slow relaxing compound, the E isomer sample at 40 µM was irradiated with the appropriate wavelength of light to generate the photo-stationary state, and another spectrum was run. This spectrum was normalised to units of ε and overlaid with the dark (100% E isomer) spectrum. […]

[2] = UV-vis spectra of the E isomers (n → π* absorption maximum); type: physicochemical; settings: E isomer, DMSO
From the text: The UV-vis spectra of the (E)-X4 derivatives and (E)-X2,m-Y2 are shown in Fig. 3 (analogous spectra for the Z isomers, and deconvoluted spectra are available in the ESI ^†). […] The n → π* transition maximum, λmax, typically followed the order meta-H > –NMe2 > –OMe and ortho-S > Cl > F. It is clear from these experiments that the four ortho X substituents in the X4 derivatives are essential for achieving the deeply red-shifted tails which allows for red/near-IR triggered photo-isomerisation.
All UV-vis spectra were determined in DMSO solution. Extinction coefficients were determined by recording a UV-vis spectra for the E isomer at 10, 20, 30, 40 µM in DMSO respectively. The absorbance at the maximum of the π - π* transition of the E‐isomers was plotted against concentration (Beer-Lambert plot) to determine the molar extinction coefficient ε. For each slow relaxing compound, the E isomer sample at 40 µM was irradiated with the appropriate wavelength of light to generate the photo-stationary state, and another spectrum was run. This spectrum was normalised to units of ε and overlaid with the dark (100% E isomer) spectrum.

Structure (SMILES): COc1cc(/N=N/c2cc(OC)c(CNC(=O)OC(C)(C)C)cc2OC)c(OC)cc1CNC(=O)OC(C)(C)C [OMe2,m-OMe2]
- Stability to light [1]: unstable to light
- λ max of n → π* transition [2]: 426.6 nm

Structure (SMILES): COc1cc(CNC(=O)OC(C)(C)C)c(OC)c(F)c1/N=N/c1c(OC)cc(CNC(=O)OC(C)(C)C)c(OC)c1F [(OMe)2F2,m-OMe2-NHBoc]
- Stability to light [1]: unstable to light
- λ max of n → π* transition [2]: 425.4 nm
